The structures appear in SMILES notation. Like-named read-outs stand apart in the source and are kept apart here. Where only a bound is given, the exact number is not on record here.

Common to all, as to assay type: biochemical
In assay [1] the target is T1, CYP3A4 (Homo sapiens, UniProt P08684). In words: Determination of IC50 against CYP3A4 by measurement of inhibition of testosterone metabolism (human liver microsomes, 6-β-OH-testosterone by LC-MS/MS). The arrangement: 0.1 mg/mL human liver microsomes. The conditions noted are these: read-out: IC50 (Testo.). Here is the method:
2. Determination of IC50 Against CYP3A4 by Measurement of Inhibition of Testosterone Metabolism
This assay was performed using a standard 96 well plate design. […] The incubation substrate mix contains 25 μM testosterone, 0.1 mg/mL human liver microsomes, 1 mM NADPH, and potassium phosphate buffer (100 mM, pH 7.4). Quantitation of metabolite peak area ratio against an internal standard is determined by LC-MS/MS analysis. The production of 6-β-OH-testosterone from testosterone metabolism is determined after incubation for eight minutes by comparison to a standard curve generated for the metabolite
(§1) Samples were analyzed in the MRM mode using a Sciex API 3000 mass spectrometer (Applied Biosystems, Foster City, Calif.) with a Paradigm MS4 binary pump (Michrom BioResources Inc., Auburn, Calif.) and a LEAP CTC PAL autosampler (LEAP Technologies, Carrboro, N.C.). A Phenomenex Synergi, 4μ, Polar-RP, 10×2.0 mm column (Phenomenex, Torrance, Calif.) was used for separation with a mobile phase composition of: 0.1% formic acid in water (A) and: 0.1% formic acid in methanol (B). The following gradient was used: […]
(§2) The sample injection volume was 10 μL and flow was split post-column with 0.4 mL/min going to the mass spectrometer. Analysis was performed using the following API 3000 mass spectrometer settings: […]

The target in assay [2] is T1, CYP3A4. In words: Determination of compound Kiapp against recombinant CYP3A4 enzyme (BFC fluorescent substrate). Here is the method:
1. Determination of compound Kiapp
A determination of the Kiapp of the compounds of the invention against recombinant CYP3A4 enzyme was performed as follows. The assay was performed in a 100 mM sodium phosphate buffer pH 7.0, 5 mM TCEP and containing 2% dimethylformamide (final concentration) upon addition of substrate and inhibitor. A typical reaction for the determination of Kiapp values was carried at room temperature in a solid black Costar u-bottom 96-well polypropylene plate. In each well, recombinant CYP3A4 enzyme (5.5 nM or 8 nM, final concentration depending on the commercial source of the enzyme) was pre-incubated in the presence of the inhibitor for at least 30 minutes in the assay buffer. When pre-incubation was completed (˜30 min), the reaction was initiated by adding NADPH (200 uM, final concentration), and 7-benzyloxy-4-(trifluoromethyl)-coumarin (BFC) (5 uM, final concentration). The oxidation of the coumarin substrate was recorded by a 96-well plate reader POLARstar (BMG LABTECH, Offenburg, Germany).
The initial reaction velocities were measured during the first 5 min of the reaction when the release of the fluorescent product is linear with time, in the absence and in the presence of various concentrations of inhibitors. For non-partial & partial inhibitors, the Kiapp values were determined by using the equation for tight-binding inhibitor developed by Morrison, J F (Morrison J F. Biochim Biophys Acta. 1969, 185: 269-86) and by Szedlaseck S E et al. (Szedlascek, S. E., Ostafe, V., Serban, M., and Vlad, M.O. Biochem. J. 1988, 254:311-312), respectively.
The fluorescent substrate BFC was purchased from Sigma (St Louis, Mo.). Two commercial sources of recombinant enzymes were used in this study: recombinant CYP3A4−b5 enzyme (Baculosomes®) was purchased from Invitrogen (Carlsbad, Calif.) and the recombinant CYP3A4+b5 enzyme (Supersomes®) was purchased from BD Biosciences (Woburn, Mass.).

The target in assay [3] is T1, CYP3A4. In words: Determination of IC50 against CYP3A4 by measurement of inhibition of midazolam metabolism (human liver microsomes, 1-hydroxymidazolam by LC-MS/MS). The arrangement: 0.1 mg/mL human liver microsomes. The note with it: 2 μM midazolam, 0.1 mg/mL human liver microsomes. Here is the method: 3. Determination of IC50 Against CYP3A4 by Measurement of Inhibition of Midazolam Metabolism
This assay was performed using a standard 96 well plate design. […] The incubation substrate mix contains 2 μM midazolam, 0.1 mg/mL human liver microsomes, 1 mM NADPH, and potassium phosphate buffer (100 mM, pH 7.4). Quantitation of metabolite peak area ratio against internal standard is determined by LC-MS/MS analysis. The production of 1-hydroxymidazolam from midazolam metabolism is determined after incubation for eight minutes by comparison to a standard curve generated for the metabolite.
as §1, §2
For orientation: Liver microsomes are a subcellular fraction often used to study metabolism.

The mark [4] stands for this setting: Baculo. enzyme preparation, read-out: Kiapp (BFC, Baculo.).
[5] abbreviates: Super. enzyme preparation, read-out: Kiapp (BFC, Super.).

T1 sequence (P08684 whole entry): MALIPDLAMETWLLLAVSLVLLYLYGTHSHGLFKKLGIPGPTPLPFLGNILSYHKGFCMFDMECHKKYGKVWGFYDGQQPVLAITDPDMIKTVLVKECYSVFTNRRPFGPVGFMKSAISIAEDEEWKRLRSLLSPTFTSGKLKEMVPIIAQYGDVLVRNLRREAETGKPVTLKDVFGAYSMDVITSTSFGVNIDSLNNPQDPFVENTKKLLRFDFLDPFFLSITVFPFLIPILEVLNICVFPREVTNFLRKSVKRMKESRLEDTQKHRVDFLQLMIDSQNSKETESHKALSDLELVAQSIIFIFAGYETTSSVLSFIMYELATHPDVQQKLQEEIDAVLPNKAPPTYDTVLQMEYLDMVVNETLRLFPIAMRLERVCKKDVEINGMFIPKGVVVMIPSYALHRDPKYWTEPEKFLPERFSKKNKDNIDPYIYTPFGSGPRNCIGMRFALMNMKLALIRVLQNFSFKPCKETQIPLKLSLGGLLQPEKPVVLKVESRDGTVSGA

One may read the IC50 as the concentration that gives 50% inhibition. On to `CC1CCN(CC(C)(C)NC(=O)c2ccccc2S(=O)(=O)Nc2cccnc2)CC1` [Example 1, N-[1,1-dimethyl-2-(4-methylpiperidin-1-yl)ethyl]-2-[(pyridin-3-ylamino)sulfonyl]benzamide], for which the IC50 on CYP3A4 [1] was less than 3 nM; at CYP3A4 [3] it was 390 nM. For the same molecule, the Ki on CYP3A4 [2] (setting [4]) came to 538 nM; on CYP3A4 [2] (setting [5]), 662 nM.

`CC(C)(CN1CCCCC1)NC(=O)c1ccccc1S(=O)(=O)Nc1cccnc1` [Example 2, N-(1,1-dimethyl-2 piperidin-1-ylethyl)-2-[(pyridin-3-ylamino)sulfonyl]benzamide]: the half-inhibitory concentration (IC50) at CYP3A4 [1] and on CYP3A4 [3] was greater than 750 nM throughout. Moreover, the figures for the Ki on CYP3A4 [2] (setting [4]) and at CYP3A4 [2] (setting [5]) were 901 nM and 570 nM, respectively.

Regarding `CC(C)(CN1CCCC1)NC(=O)c1ccccc1S(=O)(=O)Nc1cccnc1` [Example 3], the IC50 on CYP3A4 [1] and at CYP3A4 [3] was greater than 750 nM throughout. For the same molecule, the Ki is 858 nM at CYP3A4 [2] (setting [4]) and greater than 1000 nM on CYP3A4 [2] (setting [5]).

Regarding `CC(C)(NC(=O)c1ccccc1S(=O)(=O)Nc1cccnc1)C1CC1` [Example 4, N-(1-cyclopropyl-1-methylethyl)-2-[(pyridin-3-ylamino)sulfonyl]benzamide], the IC50 stood at 96 nM at CYP3A4 [1] and 52 nM on CYP3A4 [3]. Further, the values for the Ki on CYP3A4 [2] (setting [4]) and on CYP3A4 [2] (setting [5]) were 167 nM and 43.6 nM, respectively.

Turning to `O=C(NCc1ccccc1F)c1ccccc1S(=O)(=O)Nc1cccnc1` [Example 5, N-(2-fluorobenzyl)-2-[(pyridin-3-ylamino)sulfonyl]benzamide], the figures for the IC50 at CYP3A4 [1] and at CYP3A4 [3] were 66 nM and 41 nM, respectively. The figures for the Ki at CYP3A4 [2] (setting [4]) and at CYP3A4 [2] (setting [5]) were 55.9 nM and 5.8 nM, respectively.

For `O=C(c1ccccc1S(=O)(=O)Nc1cccnc1)N1CC2(CCNCC2)C1` [Example 7, 2-(2,7-diazaspiro[3.5]non-2-ylcarbonyl)-N-pyridin-3-ylbenzenesulfonamide], the IC50 on CYP3A4 [1] and at CYP3A4 [3] was greater than 750 nM each time. Moreover, the Ki on CYP3A4 [2] (setting [4]) and on CYP3A4 [2] (setting [5]) was greater than 1000 nM each time.

Take `O=C(NC1CCCCC1)c1ccccc1S(=O)(=O)Nc1cccnc1` [Example 8, N-cyclohexyl-2-[(pyridin-3-ylamino)sulfonyl]benzamide]: the half-inhibitory concentration (IC50) was 67 nM on CYP3A4 [1] and 63 nM at CYP3A4 [3]. The Ki at CYP3A4 [2] (setting [4]) turned out to be 460 nM; on CYP3A4 [2] (setting [5]) it was 44.6 nM.

As for `O=C(NCc1ccc(F)cc1)c1ccccc1S(=O)(=O)Nc1cccnc1` [Example 9, N-(4-fluorobenzyl)-2-[(pyridin-3-ylamino)sulfonyl]benzamide], the values for the half-inhibitory concentration (IC50) on CYP3A4 [1] and at CYP3A4 [3] were 9 nM and 11 nM, respectively. Further, the figures for the Ki at CYP3A4 [2] (setting [4]) and at CYP3A4 [2] (setting [5]) were 173 nM and 4 nM, respectively.

On to `CC(C)(C)OC(=O)N1CC2(CCN(C(=O)c3ccccc3S(=O)(=O)Nc3cccnc3)CC2)C1` [Example 10, tert-butyl 7-{2-[(pyridin-3-ylamino)sulfonyl]benzoyl}-2,7-diazaspiro[3.5]nonane-2-carboxylate], for which the half-inhibitory concentration (IC50) is greater than 750 nM on CYP3A4 [1] and 279 nM at CYP3A4 [3]. Also, the Ki is greater than 1000 nM on CYP3A4 [2] (setting [4]) and 558 nM on CYP3A4 [2] (setting [5]).

For `O=C(c1ccccc1S(=O)(=O)Nc1cccnc1)N1CCN(c2ccc(F)cc2)CC1` [Example 13, 2-{[4-(4-fluorophenyl)piperazin-1-yl]carbonyl}-N-pyridin-3-ylbenzenesulfonamide], the 50% inhibitory concentration (IC50) at CYP3A4 [1] turned out to be 24 nM. At CYP3A4 [2] (setting [4]), the Ki stood at 251 nM.

Consider `CC(C)(C)NC(=O)c1ccccc1S(=O)(=O)Nc1cccnc1` [Example 14, N-(tert-butyl)-2-[(pyridin-3-ylamino)sulfonyl]benzamide], for which the IC50 on CYP3A4 [1] was found to be 60 nM. In addition, the Ki at CYP3A4 [2] (setting [4]) came to 503 nM.

For the molecule `CC(C)(CNC(=O)c1ccccc1S(=O)(=O)Nc1cccnc1)N1CCOCC1` [Example 32, N-(2-methyl-2-morpholin-4-ylpropyl)-2-[(pyridin-3-ylamino)sulfonyl]benzamide], the values for the IC50 on CYP3A4 [1] and on CYP3A4 [3] were greater than 750 nM and 413 nM, respectively.

Turning to `CC(C)(CN1CCOCC1)NC(=O)c1ccccc1[S+]([O-])Cc1cccnc1` (centres unmarked) [Example 70, N-(1,1-dimethyl-2-morpholin-4-ylethyl)-2-[(pyridin-3-ylmethyl)sulfinyl]benzamide], the IC50 at CYP3A4 [1] came to 421 nM. The Ki at CYP3A4 [2] (setting [4]) amounted to 800 nM.

Consider `Cc1ccncc1NS(=O)(=O)c1ccccc1C(=O)N(C)Cc1ccccc1` [Example 139, N-benzyl-N-methyl-2-{[(4-methylpyridin-3-yl)amino]sulfonyl}benzamide], for which the Ki on CYP3A4 [2] (setting [4]) came out at 388 nM; on CYP3A4 [2] (setting [5]) it was 51.1 nM. Further, the half-inhibitory concentration (IC50) on CYP3A4 [3] amounted to 48 nM.

Consider `CN(Cc1ccc(C(F)(F)F)cc1)C(=O)c1ccccc1S(=O)(=O)Nc1cccnc1` [Example 140, N-methyl-2-[(pyridin-3-ylamino)sulfonyl]-N-[4-(trifluoromethyl)benzyl]benzamide], for which the Ki at CYP3A4 [2] (setting [4]) amounted to 160 nM; on CYP3A4 [2] (setting [5]), 17.3 nM. For the same molecule, the 50% inhibitory concentration (IC50) at CYP3A4 [3] is 56 nM.

For `CN(Cc1ccc(F)cc1)C(=O)c1ccccc1S(=O)(=O)Nc1cccnc1` [Example 141, N-(4-fluorobenzyl)-N-methyl-2-[(pyridin-3-ylamino)sulfonyl]benzamide], the Ki at CYP3A4 [2] (setting [4]) worked out at 172 nM; on CYP3A4 [2] (setting [5]), 21.1 nM. The IC50 on CYP3A4 [3] was determined as 36 nM.

With `CCOc1ccncc1NS(=O)(=O)c1ccccc1C(=O)N(C)Cc1ccc(F)cc1` [Example 142, 2-{[(4-ethoxypyridin-3-yl)amino]sulfonyl}-N-(4-fluorobenzyl)-N-methylbenzamide], the values for the Ki on CYP3A4 [2] (setting [4]) and at CYP3A4 [2] (setting [5]) were 111 nM and 11.8 nM, respectively. In addition, at CYP3A4 [3], the half-inhibitory concentration (IC50) was 26 nM.

`COc1ccncc1NS(=O)(=O)c1ccccc1C(=O)N(C)Cc1ccc(F)cc1` [Example 143, N-(4-fluorobenzyl)-2-{[(4-methoxypyridin-3-yl)amino]sulfonyl}-N-methylbenzamide]: the Ki on CYP3A4 [2] (setting [4]) turned out to be 169 nM; on CYP3A4 [2] (setting [5]) it was 29 nM. Also, the half-maximal inhibitory concentration (IC50) on CYP3A4 [3] was 58 nM.

`Cc1ccncc1NS(=O)(=O)c1ccccc1C(=O)N(C)Cc1ccc(F)cc1` [Example 144, N-(4-fluorobenzyl)-N-methyl-2-{[(4-methylpyridin-3-yl)amino]sulfonyl}benzamide]: the Ki on CYP3A4 [2] (setting [4]) came out at 327 nM; at CYP3A4 [2] (setting [5]) it was 39 nM. For the same molecule, the IC50 on CYP3A4 [3] is 72 nM.

`Cc1cncc(NS(=O)(=O)c2ccccc2C(=O)N(C)Cc2ccc(C(F)(F)F)cc2)c1` [Example 145, N-methyl-2-{[(5-methylpyridin-3-yl)amino]sulfonyl}-N-[4-(trifluoromethyl)benzyl]benzamide]: the Ki at CYP3A4 [2] (setting [4]) is 43.9 nM; on CYP3A4 [2] (setting [5]) it was 5.9 nM. The 50% inhibitory concentration (IC50) at CYP3A4 [3] was 18 nM.

Turning to `Cc1cncc(NS(=O)(=O)c2ccccc2C(=O)N(C)Cc2ccc(F)cc2)c1` [Example 146, N-(4-fluorobenzyl)-N-methyl-2-{[(5-methylpyridin-3-yl)amino]sulfonyl}benzamide], the results for the Ki on CYP3A4 [2] (setting [4]) and at CYP3A4 [2] (setting [5]) were 54.6 nM and 8.6 nM, respectively. At CYP3A4 [3], the IC50 amounted to 11 nM.

In the case of `COc1cncc(NS(=O)(=O)c2ccccc2C(=O)NCc2cc(F)ccc2F)c1` [Example 147, N-(2,5-difluorobenzyl)-2-{[(5-methoxypyridin-3-yl)amino]sulfonyl}benzamide], the Ki on CYP3A4 [2] (setting [4]) amounted to 209 nM; at CYP3A4 [2] (setting [5]), 19.2 nM. Also, the concentration for half-maximal inhibition (IC50) on CYP3A4 [3] was 16 nM.

The values are drawn from patent US7868026B2, “Therapeutic compounds” (Pfizer Inc., priority 2005, dated 2011).
